Test system: Scenedesmus cavuolatus (CS, Chlorella fusca)
Experiment: Determination of the resistance to colonization by algae (render coat on paper, media for algae)
Format: cell-based
Conditions: +0.25% benzalkonium chloride, 50% strength, 5 month storage
Procedure: The unfinished material (commercially available render, pH 11.5) is treated, in separate batches, with different concentrations of the preservative A according to the invention.
The test was carried out once after the samples had been prepared and then after storage in wet render for 3 months or 5 months.
Laboratory method for determining the resistance of facade coats to colonization by algae. In this method, facade coats on standardized paper are used as the test substrate, and Scenedesmus cavuolatus (CS, Chlorella fusca) as the test alga.
The experiments are carried out in Petri dishes on media for algae.
1000 g of the material to be finished were, in separate batches, mixed with various concentrations of the test microbicide and homogenized using a suitable stirrer.
Paper supports (Schleicher & Schüll No. 2589 B/X 24078) 90×270 mm in size are coated with the test material. The paint or render samples are applied as a coat to wet-layer thickness of 250 μm, using a knife. The knife must have an opening of at least 6.5 cm in width. In the case of renders, the layer thickness depends on the particle size, as is the case under practice conditions. The coated supports, hereinbelow referred to as test specimens, are subsequently dried for 5 days in a horizontal position. […]
The colonization of the samples with algae is examined and evaluated after 2 weeks. […]

Q: Which results are given for “benzalkonium chloride [benzalkonium chloride, 50% strength]”?
A: Inhibitory zone in mm (first group of rows (leaching not given, presumably none)): >18 mm; Inhibitory zone in mm (second group of rows (leaching not given, presumably 72 h)): >18 mm

Reference: patent US20070093538A1, “Preparation for the fungicidal and algicidal finish of alkaline coating compositions” (priority 2005, published 2007)
